Results on 21 compounds are retold here after patent US8148391B2 (Cephalon, Inc., priority 2006, dated 2012).

pIC50: −log10 of the molar value. Where two headings read alike, the source gives them in different places. Where only a bound is given, the exact number is not on record here.

The target in assay [1] is T1, baculovirus-expressed ALK (Homo sapiens, UniProt Q9UM73).
T1 construct: host or cells: baculovirus expression system
Briefly: ALK Kinase Assay (ELISA-type, time-resolved fluorescence). Type of assay: biochemical. To be noted: 1 μM ATP (Km level); read-out: ALK Activity (ALK Kinase Inhibition, IC50). The procedure, abridged:
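Substrate coating: phospholipase C-γ, 10 μg/mL in TBS. Kinase step: 30 ng/ml ALK, 15 min, 37° C. Detection and analysis: Eu-N1 PT66 antibody, with IC50 fitted as a sigmoidal variable-slope dose-response curve.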

In assay [2] the target is T2, c-Met (cytoplasmic domain) (Homo sapiens, UniProt P08581).
T2 construct: 10 ng/mL c-Met (cytoplasmic domain, Invitrogen Corporation #PV3143); purchased Invitrogen Corporation PV3143
Briefly: c-Met Kinase Assay (same methods as for ALK, with modifications). In kind it is biochemical. To be noted: 1 μM ATP (Km level). The procedure, abridged:
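This plate-based kinase format uses immobilized phospholipase C-γ as substrate, phosphorylated by c-Met cytoplasmic domain (10 ng/mL) at 37° C for 15 minutes.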

The mark [3] stands for this setting: read-out: cMet Activity (c-Met Kinase Inhibition, IC50).

T2 sequence (P08581 956-1390 limits assumed): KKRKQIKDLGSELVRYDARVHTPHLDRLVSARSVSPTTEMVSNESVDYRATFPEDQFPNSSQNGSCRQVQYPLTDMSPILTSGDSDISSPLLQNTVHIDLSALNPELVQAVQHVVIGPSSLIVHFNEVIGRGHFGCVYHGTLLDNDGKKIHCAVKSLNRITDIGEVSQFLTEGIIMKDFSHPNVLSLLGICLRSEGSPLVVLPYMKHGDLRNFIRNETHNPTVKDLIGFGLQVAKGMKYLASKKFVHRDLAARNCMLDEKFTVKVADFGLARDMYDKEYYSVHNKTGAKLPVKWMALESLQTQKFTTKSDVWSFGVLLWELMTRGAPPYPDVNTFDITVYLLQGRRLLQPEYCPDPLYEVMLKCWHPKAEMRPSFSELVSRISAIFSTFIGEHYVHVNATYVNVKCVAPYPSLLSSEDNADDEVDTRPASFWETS
T1 sequence (Q9UM73 19-1620): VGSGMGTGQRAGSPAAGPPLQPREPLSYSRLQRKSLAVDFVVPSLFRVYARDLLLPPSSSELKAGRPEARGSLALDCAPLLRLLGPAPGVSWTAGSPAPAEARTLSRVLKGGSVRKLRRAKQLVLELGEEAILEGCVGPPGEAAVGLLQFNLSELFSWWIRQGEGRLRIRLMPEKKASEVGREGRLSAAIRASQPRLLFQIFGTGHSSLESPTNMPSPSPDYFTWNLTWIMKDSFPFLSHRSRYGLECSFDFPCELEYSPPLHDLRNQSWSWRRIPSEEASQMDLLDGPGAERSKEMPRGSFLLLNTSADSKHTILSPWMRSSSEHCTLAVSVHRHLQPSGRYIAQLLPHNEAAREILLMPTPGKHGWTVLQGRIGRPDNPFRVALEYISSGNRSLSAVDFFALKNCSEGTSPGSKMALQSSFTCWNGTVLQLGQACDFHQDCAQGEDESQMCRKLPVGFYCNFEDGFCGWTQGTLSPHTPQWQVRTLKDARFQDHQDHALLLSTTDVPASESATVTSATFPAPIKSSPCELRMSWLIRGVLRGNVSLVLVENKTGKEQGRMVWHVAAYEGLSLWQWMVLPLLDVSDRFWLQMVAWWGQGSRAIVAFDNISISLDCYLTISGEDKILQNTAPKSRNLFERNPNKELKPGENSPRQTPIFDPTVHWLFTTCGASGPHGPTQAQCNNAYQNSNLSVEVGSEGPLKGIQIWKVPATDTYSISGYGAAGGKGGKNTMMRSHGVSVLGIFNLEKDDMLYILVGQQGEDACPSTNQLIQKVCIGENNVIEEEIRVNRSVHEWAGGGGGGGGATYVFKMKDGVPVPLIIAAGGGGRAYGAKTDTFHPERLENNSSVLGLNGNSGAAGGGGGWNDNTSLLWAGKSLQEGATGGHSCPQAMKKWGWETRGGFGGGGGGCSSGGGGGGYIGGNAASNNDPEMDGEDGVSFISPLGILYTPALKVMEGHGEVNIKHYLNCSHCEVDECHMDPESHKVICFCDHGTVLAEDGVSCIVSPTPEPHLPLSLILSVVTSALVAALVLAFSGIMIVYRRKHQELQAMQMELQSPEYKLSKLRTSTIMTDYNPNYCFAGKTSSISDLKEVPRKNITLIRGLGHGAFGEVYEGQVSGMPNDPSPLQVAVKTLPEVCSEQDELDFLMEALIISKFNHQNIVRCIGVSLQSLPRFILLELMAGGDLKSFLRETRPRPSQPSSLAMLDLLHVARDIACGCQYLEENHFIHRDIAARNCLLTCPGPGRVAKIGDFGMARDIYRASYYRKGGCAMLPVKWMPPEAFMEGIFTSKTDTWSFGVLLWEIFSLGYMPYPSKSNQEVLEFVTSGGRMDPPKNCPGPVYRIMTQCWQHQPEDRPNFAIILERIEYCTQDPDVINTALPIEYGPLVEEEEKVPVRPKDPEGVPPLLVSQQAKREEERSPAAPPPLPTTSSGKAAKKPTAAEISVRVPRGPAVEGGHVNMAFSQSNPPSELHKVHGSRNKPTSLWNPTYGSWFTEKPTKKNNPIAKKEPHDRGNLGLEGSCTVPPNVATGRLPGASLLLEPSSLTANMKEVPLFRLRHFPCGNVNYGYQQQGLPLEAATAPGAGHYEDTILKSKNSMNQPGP

One may read the pIC50 as the IC50 on a negative log10 scale, so that one unit is a factor of ten. For the compound `COc1cc2c(cc1Nc1ncc(C(F)(F)F)c(N[C@H]3[C@@H](C(N)=O)[C@@H]4C=C[C@H]3C4)n1)CCN(CC(=O)N(C)C)CC2` [Example 933, (1S,2S,3R,4R)-3-[2-(3-Dimethylcarbamoylmethyl-8-methoxy-2,3,4,5-tetrahydro-1H-3-benzazepin-7-ylamino)-5-trifluoromethyl-pyrimidin-4-ylamino]-bicyclo[2.2.1]hept-5-ene-2-carboxylic acid amide], the figures for the pIC50 in assay [1] and in assay [2] (setting [3]) were greater than 7.00 and 5.00 to 6.00, respectively.

Consider `COCCN1CCc2ccc(Nc3ncc(C(F)(F)F)c(N[C@H]4[C@@H](C(N)=O)[C@@H]5C=C[C@H]4C5)n3)cc2CC1` [Example 934, (1S,2S,3R,4R)-3-{2-[3-(2-Methoxy-ethyl)-2,3,4,5-tetrahydro-1H-3-benzazepin-7-ylamino]-5-trifluoromethyl-pyrimidin-4-ylamino}-bicyclo[2.2.1]hept-5-ene-2-carboxylic acid amide], for which the pIC50 in assay [1] and in assay [2] (setting [3]) was greater than 7.00 throughout.

In the case of `NC(=O)[C@@H]1[C@H](Nc2nc(Nc3ccc4c(c3)CCC(N3CCOCC3)CC4)ncc2C(F)(F)F)[C@H]2C=C[C@@H]1C2` (stereo partly drawn) [Example 935, (1S,2S,3R,4R)-3-[2-(7-Morpholin-4-yl-6,7,8,9-tetrahydro-5H-benzocyclohepten-2-ylamino)-5-trifluoromethyl-pyrimidin-4-ylamino]-bicyclo[2.2.1]hept-5-ene-2-carboxylic acid amide], the pIC50 in assay [1] and in assay [2] (setting [3]) was greater than 7.00 throughout.

As to `COCCN1CCc2ccc(Nc3ncc(Cl)c(Nc4ccc(OC)c5c4C(=O)N(C)C5)n3)cc2CC1` [Example 936, 7-{5-Chloro-2-[3-(2-methoxy-ethyl)-2,3,4,5-tetrahydro-1H-3-benzazepin-7-ylamino]-pyrimidin-4-ylamino}-4-methoxy-2-methyl-2,3-dihydro-isoindol-1-one], the figures for the pIC50 in assay [1] and in assay [2] (setting [3]) were greater than 7.00 and 6.00 to 7.00, respectively.

On to `COc1cc2c(cc1Nc1ncc(Cl)c(Nc3ccc(OC)c4c3C(=O)N(C)C4)n1)CCN(CC(=O)N(C)C)CC2` [Example 937, 2-{7-[5-Chloro-4-(7-methoxy-2-methyl-3-oxo-2,3-dihydro-1H-isoindol-4-ylamino)-pyrimidin-2-ylamino]-8-methoxy-1,2,4,5-tetrahydro-3-benzazepin-3-yl}-N,N-dimethyl-acetamide], for which the pIC50 was greater than 7.00 in assay [1] and less than 5.00 in assay [2] (setting [3]).

Consider `COc1ccc(Nc2nc(Nc3ccc4c(c3)CCC(O)CC4)ncc2Cl)c2c1CN(C)C2=O` (stereo not drawn) [Example 938, 7-[5-Chloro-2-(7-hydroxy-6,7,8,9-tetrahydro-5H-benzocyclohepten-2-ylamino)-pyrimidin-4-ylamino]-4-methoxy-2-methyl-2,3-dihydro-isoindol-1-one], for which the negative-log IC50 (pIC50) in assay [1] is 6.00 to 7.00; in assay [2] (setting [3]) it was 5.00 to 6.00.

Take `COc1ccc(Nc2nc(Nc3ccc4c(c3)CCC(N3CCOCC3)CC4)ncc2Cl)c2c1CN(C)C2=O` (stereo not drawn) [Example 939, 7-[5-Chloro-2-(7-morpholin-4-yl-6,7,8,9-tetrahydro-5H-benzocyclohepten-2-ylamino)-pyrimidin-4-ylamino]-4-methoxy-2-methyl-2,3-dihydro-isoindol-1-one]: the figures for the pIC50 in assay [1] and in assay [2] (setting [3]) were greater than 7.00 and 5.00 to 6.00, respectively.

Turning to `COc1c(Nc2ncc(Cl)c(Nc3ccccc3S(=O)(=O)N(C)C)n2)ccc2c1CCCC(N1CCOCC1)C2` (stereo not drawn) [Example 944, 2-[5-Chloro-2-(1-methoxy-6-morpholin-4-yl-6,7,8,9-tetrahydro-5H-benzocyclohepten-2-ylamino)-pyrimidin-4-ylamino]-N,N-dimethyl-benzenesulfonamide], the pIC50 in assay [1] is greater than 7.00; in assay [2] (setting [3]), less than 5.00.

As for `COc1ccc(Nc2ncc(Cl)c(Nc3ccccc3S(=O)(=O)N(C)C)n2)c2c1CCCC(N1CCOCC1)C2` (stereo not drawn) [Example 945, 2-[5-Chloro-2-(4-methoxy-8-morpholin-4-yl-6,7,8,9-tetrahydro-5H-benzocyclohepten-1-ylamino)-pyrimidin-4-ylamino]-N,N-dimethyl-benzenesulfonamide], the values for the negative-log IC50 (pIC50) in assay [1] and in assay [2] (setting [3]) were 5.00 to 6.00 and less than 5.00, respectively.

For the compound `COc1ccc(Nc2ncc(Cl)c(Nc3ccccc3S(=O)(=O)C(C)C)n2)c2c1CCCC(N1CCOCC1)C2` (stereo not drawn) [Example 946, 5-Chloro-N(2)-(4-methoxy-8-morpholin-4-yl-6,7,8,9-tetrahydro-5H-benzocyclohepten-1-yl)-N(4)-[2-(propane-2-sulfonyl)-phenyl]-pyrimidine-2,4-diamine], the pIC50 in assay [1] was 6.00 to 7.00; in assay [2] (setting [3]), less than 5.00.

Consider `COc1c(Nc2ncc(Cl)c(Nc3ccccc3S(=O)(=O)C(C)C)n2)ccc2c1CCCC(N1CCOCC1)C2` (stereo not drawn) [Example 947, 5-Chloro-N(2)-(1-methoxy-6-morpholin-4-yl-6,7,8,9-tetrahydro-5H-benzocyclohepten-2-yl)-N(4)-[2-(propane-2-sulfonyl)-phenyl]-pyrimidine-2,4-diamine], for which the values for the pIC50 in assay [1] and in assay [2] (setting [3]) were greater than 7.00 and less than 5.00, respectively.

Regarding `COc1c(Nc2ncc(Cl)c(Nc3ccccc3C(=O)OC(C)C)n2)ccc2c1CCCC(N1CCOCC1)C2` (stereo not drawn) [Example 948, 2-[5-Chloro-2-(1-methoxy-6-morpholin-4-yl-6,7,8,9-tetrahydro-5H-benzocyclohepten-2-ylamino)-pyrimidin-4-ylamino]-benzoic acid isopropyl ester], the values for the negative logarithm of the IC50 (pIC50) in assay [1] and in assay [2] (setting [3]) were 6.00 to 7.00 and less than 5.00, respectively.

Regarding `COc1c(Nc2ncc(Cl)c(N[C@@H]3CCCC[C@H]3NS(C)(=O)=O)n2)ccc2c1CCCC(N1CCOCC1)C2` (stereo partly drawn) [Example 949, N-{(1R,2R)-2-[5-Chloro-2-(1-methoxy-6-morpholin-4-yl-6,7,8,9-tetrahydro-5H-benzocyclohepten-2-ylamino)-pyrimidin-4-ylamino]-cyclohexyl}-methanesulfonamide], the pIC50 in assay [1] is greater than 7.00; in assay [2] (setting [3]), less than 5.00.

Take `COCCN1CCc2ccc(Nc3ncc(Cl)c(Nc4ccc(N5CCN(C(C)C)CC5)c5c4C(=O)N(C)C5)n3)cc2CC1` [Example 950, 7-{5-Chloro-2-[3-(2-methoxy-ethyl)-2,3,4,5-tetrahydro-1H-3-benzazepin-7-ylamino]-pyrimidin-4-ylamino}-4-(4-isopropyl-piperazin-1-yl)-2-methyl-2,3-dihydro-isoindol-1-one]: the pIC50 in assay [1] was greater than 7.00; in assay [2] (setting [3]), 6.00 to 7.00.

Regarding `COc1cc2c(cc1Nc1ncc(Cl)c(Nc3ccc(N4CCN(C(C)C)CC4)c4c3C(=O)N(C)C4)n1)CCN(CC(=O)N(C)C)CC2` [Example 951, 2-(7-{5-Chloro-4-[7-(4-isopropyl-piperazin-1-yl)-2-methyl-3-oxo-2,3-dihydro-1H-isoindol-4-ylamino]-pyrimidin-2-ylamino}-8-methoxy-1,2,4,5-tetrahydro-3-benzazepin-3-yl)-N,N-dimethyl-acetamide], the pIC50 in assay [1] was greater than 7.00; in assay [2] (setting [3]) it was less than 5.00.

On to `COc1cc(N2CCOCC2)ccc1Nc1nc(Nc2ccc3c(c2OC)CCCC(N2CCOCC2)C3)ncc1Cl` (stereo not drawn) [Example 952, 5-Chloro-N(4)-(2-methoxy-4-morpholin-4-yl-phenyl)-N(2)-(1-methoxy-6-morpholin-4-yl-6,7,8,9-tetrahydro-5H-benzocyclohepten-2-yl)-pyrimidine-2,4-diamine], for which the negative logarithm of the IC50 (pIC50) in assay [1] was greater than 7.00; in assay [2] (setting [3]), less than 5.00.

For the compound `COc1cc2c(cc1Nc1ncc(Cl)c(Nc3ccc(N4CCN(C(C)C)CC4)c4c3C(=O)N(C)C4)n1)CCN(CCO)CC2` [Example 953, 7-{5-Chloro-2-[3-(2-hydroxy-ethyl)-8-methoxy-2,3,4,5-tetrahydro-1H-3-benzazepin-7-ylamino]-pyrimidin-4-ylamino}-4-(4-isopropyl-piperazin-1-yl)-2-methyl-2,3-dihydro-isoindol-1-one], the figures for the pIC50 in assay [1] and in assay [2] (setting [3]) were greater than 7.00 and less than 5.00, respectively.

As to `COCCN1CCc2ccc(Nc3ncc(Cl)c(Nc4cc(C(N)=O)n[nH]4)n3)cc2CC1` [Example 954, 5-{5-Chloro-2-[3-(2-methoxy-ethyl)-2,3,4,5-tetrahydro-1H-3-benzazepin-7-ylamino]-pyrimidin-4-ylamino}-1H-pyrazole-3-carboxylic acid amide], the pIC50 in assay [1] and in assay [2] (setting [3]) was 6.00 to 7.00 throughout.

Take `COCCN1CCc2ccc(Nc3ncc(Cl)c(Nc4cc(C)n[nH]4)n3)cc2CC1` [Example 955, 5-Chloro-N(2)-[3-(2-methoxy-ethyl)-2,3,4,5-tetrahydro-1H-3-benzazepin-7-yl]-N(4)-(5-methyl-2H-pyrazol-3-yl)-pyrimidine-2,4-diamine]: the values for the negative logarithm of the IC50 (pIC50) in assay [1] and in assay [2] (setting [3]) were 6.00 to 7.00 and 5.00 to 6.00, respectively.

With `COCCNC1CCCc2c(ccc(Nc3ncc(Cl)c(N[C@H]4[C@@H](C(N)=O)[C@@H]5C=C[C@H]4C5)n3)c2OC)C1` (stereo partly drawn) [Example 956, (1S,2S,3R,4R)-3-{5-Chloro-2-[1-methoxy-6-(2-methoxy-ethylamino)-6,7,8,9-tetrahydro-5H-benzocyclohepten-2-ylamino]-pyrimidin-4-ylamino}-bicyclo[2.2.1]hept-5-ene-2-carboxylic acid amide], the pIC50 in assay [1] is greater than 7.00; in assay [2] (cMet Activity (c-Met Kinase Inhibition, IC50)) it was less than 5.00.

In the case of `COCCNC1CCCc2c(ccc(Nc3ncc(Cl)c(Nc4ccccc4S(=O)(=O)N(C)C)n3)c2OC)C1` (stereo not drawn) [Example 957, 2-{5-Chloro-2-[1-methoxy-6-(2-methoxy-ethylamino)-6,7,8,9-tetrahydro-5H-benzocyclohepten-2-ylamino]-pyrimidin-4-ylamino}-N,N-dimethyl-benzenesulfonamide], the pIC50 was greater than 7.00 in assay [1] and less than 5.00 in assay [2] (setting [3]).
